Test results as given in patent US8158647B2, “Substituted pyrrolopyridines and pyrazolopyridines as kinase modulators” (SGX Pharmaceuticals, Inc., priority 2007, dated 2012).

Legend:
ABL T315I BAF3 cells = target: T1, ABL T315I BAF3 cells (Homo sapiens, UniProt P00519, T315I, cells depend on it); assay: 96-well XTT cell survival assay, BaF3 ABL T315I; format: cell-based; details: 72 hours, read-out: CELL BIO ABL T315I BAF3 XTT (IC50)
T1 construct: ABL T315I BAF3; fused on or other part: P11274 (Breakpoint cluster region protein)
Procedure: (§1) MV4-11 and THP cells were maintained in Iscove's Modified Dulbecco's Medium supplemented with 10% fetal bovine serum (FBS) and penicillin/streptomycin, Ba/F3 cells were maintained in RPMI 1640 supplemented with 10% FBS, penicillin/streptomycin and 5 ng/ml recombinant mouse IL-3.
(§2) Compounds were tested in the following assays in duplicate.
(§3) 96-well XTT assay: Cells (e.g. BaF3 315I, M3511, or E255K cells) were grown in growth media containing various concentrations of compounds (duplicates) on a 96-well plate for 72 hours at 37° C. The starting cell number was 5000-8000 cells per well and volume was 120 μl. At the end of the 72-hour incubation, 40 μl of XTT labeling mixture (50:1 solution of sodium 3′-[1-(phenylamino-carbonyl)-3,4-tetrazolium]-bis(4-methoxy-6-nitro) benzene sulfonic acid hydrate and Electron-coupling reagent: PMS (N-methyl dibenzopyrazine methyl sulfate) were added to each well of the plate. After an additional 2-6 hours of incubation at 37° C., the absorbance reading at 405 nm with background correction at 650 nm was measured with a spectrophotometer.

ABL P210WT BAF3 cells = target: T2, ABL P210WT BAF3 cells (Homo sapiens, UniProt P00519); assay: 96-well XTT cell survival assay, BaF3 ABL P210WT; format: cell-based; details: ABL P210 WT, 72 hours, read-out: CELL BIO ABL P210WT BAF3 XTT (IC50)
T2 construct: ABL P210WT BAF3; fused on or other part: P11274 (Breakpoint cluster region protein)
Procedure: as §1, §2, §3

[1] = target: T3, purified and unphosphorylated T315I Abl kinase domain (ABL_T315I_0P) (Mus musculus, UniProt P00520, T315I); assay: c-Abl T315I (unphosphorylated kinase domain) pyruvate kinase/lactate dehydrogenase coupled enzyme assay; format: biochemical; details: 10 μM ATP
T3 construct: The c-Abl T3151 KD (kinase domain) was purified as follows; Met-Ser-Leu (vector-derived residues) (N); made in house; host or cells: E. coli BL21(DE3) strains (Codon+RIL, or pSA0145 for the lambda phosphatase co-expression plasmid)
T3 sequence (P00520 242-493 T315I limits assumed): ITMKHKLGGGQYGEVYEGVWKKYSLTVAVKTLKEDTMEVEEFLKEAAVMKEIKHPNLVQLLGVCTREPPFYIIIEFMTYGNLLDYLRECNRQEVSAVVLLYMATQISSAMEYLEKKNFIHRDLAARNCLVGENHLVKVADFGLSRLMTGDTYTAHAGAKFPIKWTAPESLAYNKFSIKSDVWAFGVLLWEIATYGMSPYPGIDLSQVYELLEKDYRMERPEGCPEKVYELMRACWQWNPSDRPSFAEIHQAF
From the text: Although the first of these examples uses the kinase domain of a mutant form of Abl T315I (“Abl T315I KD”), the kinase assays may use various forms of mutant and wild type enzymes, including, for example, the entire protein, the kinase domain, or a portion thereof (e.g. Abl Y393F). The kinases used in the assays may also be of varying phosphorylation states. In the c-Abl example, a mutant kinase at a zero phosphorylation state was used.
c-Abl Pyruvate Kinase/Lactate Dehydrogenase Coupled Enzyme Assay
In the c-Abl Pyruvate Kinase (PK)/Lactate Dehydrogenase (LDH) Coupled Assay the protein kinase dependant phosphorylation of a substrate peptide was coupled to the oxidation of NADH. The oxidation of NADH to NAD+ was detected by monitoring a decrease in absorbance at 340 nm.
Materials: Abl substrate peptide=EAIYAAPFAKKK-OH (SEQ ID NO: 1) (Biopeptide, San Diego, Calif.); […]NADH (Sigma Cat#N-8129, FW=709.4); 2M MgCl2; 1M HEPES buffer, pH 7.5; Phosphoenolpyruvate (PEP) (Sigma Cat#P-7002, FW=234); Lactate dehydrogenase (LDH) (Worthington Biochemical Cat#2756); Pyruvate Kinase (PK) (Sigma Cat#P-9136); ATP (Sigma Cat#A-3377, FW=551); Greiner 384-well UV star plate; and purified and unphosphorylated T3151 Abl kinase domain.
Stock Solutions: 10 mM NADH (7.09 mg/ml in miliQH2O) made fresh daily; 10 mM Abl substrate peptide (13.4 mg/ml in miliQH2O) stored at −20° C.; 100 mM HEPES buffer, pH 7.5 (5 ml 1M stock+45 ml miliQH2O); 100mM MgCl2 (5 ml 2M MgCl2+95 ml dH2O); 100 mM PEP (23.4 mg/ml in dH2O) stored at −20° C.; 10mM ATP (5.51 mg/ml in dH2O) stored at −20° C. (diluted 50 μl into total of 10 ml miliQH2O daily=50 μM ATP working stock); 1000 U/ml PK (U/mg varies with lot) flash-frozen under liquid N2 and stored at −80° C.; and 1000 U/ml LDH (U/mg varies with lot) flash-frozen under liquid N2 and stored at −80° C.
Standard Assay Setup for 384-well format (50 μl reaction): 300 μM NADH; 10 mM MgCl2; 2 mM PEP; 45 U/ml PK; 60 U/ml LDH; 200 μM Abl substrate peptide; 2.5 μl test compound (in DMSO); 2 μg/ml Abl kinase domain; 10 μM ATP; 100 mM HEPES buffer. Positive controls contained DMSO with no test compound. Negative controls contained 5 μl of 0.5M EDTA (50 mM in the assay). The dephosphorylated form of the c-Abl T315I mutant was used in the biochemical screening assays. The kinase reaction was initiated at time t=0 by the addition of ATP.
Activity was measured by following the time-dependent loss of NADH by absorbance spectroscopy at 340 nm. The linear portion of the resulting progress curve was then analyzed by linear regression to get the activity in absorbance units/time, reported as the slope of that best fit line (moles/unit time can be calculated from using molar extinction coefficient for NADH at 340 nm, 6250M^−1 cm^−1).
Screening data was evaluated using the equation: Z′=1-[3*(σ++σ−)/|μ+−μ−|] (Zhang, et al., 1999 J Biomol Screening 4(2) 67-73), where μ denotes the mean and σ the standard deviation. The subscript designates positive or negative controls. The Z′ score for a robust screening assay should be ≧0.50. The typical threshold=μ+−3*σ+−. Any value that falls below the threshold was designated a “hit”.
Dose response was analyzed using the equation: y=min+{(max−min)/(1+10^[compound]−logIC50)}, where y is the observed initial slope, max=the slope in the absence of inhibitor, min=the slope at infinite inhibitor, and the IC50 is the [compound] that corresponds to ½ the total observed amplitude (Amplitude=max−min).
To measure modulation, activation, or inhibition of Abl KD, a test compound was added to the assay at a range of concentrations. Inhibitors may inhibit Abl KD activity at an IC50 in the micromolar range, the nanomolar range, or, for example, in the subnanomolar range.
An open-reading frame for c-Abl was amplified from a Mus musculus (mouse) cDNA library prepared from freshly harvested mouse liver using a commercially available kit (Invitrogen) by PCR using the following primers: […]
The c-Abl T3151 KD (kinase domain) was purified as follows. […]

For CN(C)C(=O)c1cc(-c2cnc3[nH]cc(-c4cc(F)ccc4F)c3c2Cl)cnc1N [2-Amino-5-[4-chloro-3-(2,5-difluoro-phenyl)-1H-pyrrolo[2,3-b]pyridin-5-yl]-N,N-dimethyl-nicotinamide], the GI50 (ABL T315I BAF3 cells) was 100 to 1000 nM, the GI50 (ABL P210WT BAF3 cells) was 10 to 100 nM and the “ABL_T315I_0P (IC50)” value [1] was “D (<0.01 μM)”.
CCc1c(-c2cncc(C(O)C(=O)N(C)C)c2)cnc2[nH]cc(-c3ccccc3OC)c12 (stereo not drawn) [2-{5-[4-Ethyl-3-(2-methoxy-phenyl)-1H-pyrrolo[2,3-b]pyridin-5-yl]-pyridin-3-yl}-2-hydroxy-N,N-dimethyl-acetamide] was tested, and the GI50 (ABL T315I BAF3 cells) was 100 to 1000 nM, the GI50 (ABL P210WT BAF3 cells) was 100 to 1000 nM and the “ABL_T315I_0P (IC50)” value [1] was “D (<0.01 μM)”.
For OC(c1cncc(-c2cnc3[nH]cc(-c4ccccc4)c3c2Cl)c1)c1ncccc1F (stereo not drawn) [[5-(4-Chloro-3-phenyl-1H-pyrrolo[2,3-b]pyridin-5-yl)-pyridin-3-yl]-(3-fluoro-pyridin-2-yl)-methanol], the GI50 (ABL T315I BAF3 cells) was 100 to 1000 nM, the GI50 (ABL P210WT BAF3 cells) was 100 to 1000 nM and the “ABL_T315I_0P (IC50)” value [1] was “D (<0.01 μM)”.
For CN(C)C(=O)c1cc(-c2cnc3[nH]cc(-c4ccc5c(c4)CC(=O)N5)c3c2Cl)cnc1N [2-Amino-5-[4-chloro-3-(2-oxo-2,3-dihydro-1H-indol-5-yl)-1H-pyrrolo[2,3-b]pyridin-5-yl]-N,N-dimethyl-nicotinamide], the GI50 (ABL T315I BAF3 cells) was > 1000 nM, the GI50 (ABL P210WT BAF3 cells) was 100 to 1000 nM and the “ABL_T315I_0P (IC50)” value [1] was “D (<0.01 μM)”.
In the case of CN(C)C(=O)c1cncc(-c2cnc3[nH]cc(-c4ccccc4)c3c2Cl)c1 [5-(4-Chloro-3-phenyl-1H-pyrrolo[2,3-b]pyridin-5-yl)-N,N-dimethyl-nicotinamide], the GI50 (ABL T315I BAF3 cells) is reported as > 1000 nM, the GI50 (ABL P210WT BAF3 cells) is reported as > 1000 nM and the “ABL_T315I_0P (IC50)” value [1] is reported as “D (<0.01 μM)”.
CN(C)C(=O)c1cc(-c2cnc3[nH]cc(-c4cccc(F)c4F)c3c2Cl)cnc1N [2-Amino-5-[4-chloro-3-(2,3-difluoro-phenyl)-1H-pyrrolo[2,3-b]pyridin-5-yl]-N,N-dimethyl-nicotinamide] was tested, and the GI50 (ABL T315I BAF3 cells) was 100 to 1000 nM, the GI50 (ABL P210WT BAF3 cells) was 100 to 1000 nM and the “ABL_T315I_0P (IC50)” value [1] was “D (<0.01 μM)”.
OC(c1cncc(-c2cnc3[nH]cc(-c4cccc(F)c4F)c3c2Cl)c1)C1CC1 (stereo not drawn) [{5-[4-Chloro-3-(2,3-difluoro-phenyl)-1H-pyrrolo[2,3-b]pyridin-5-yl]-pyridin-3-yl}-cyclopropyl-methanol] was tested, and the GI50 (ABL T315I BAF3 cells) was 100 to 1000 nM, the GI50 (ABL P210WT BAF3 cells) was 100 to 1000 nM and the “ABL_T315I_0P (IC50)” value [1] was “D (<0.01 μM)”.
With COc1ccccc1-c1c[nH]c2ncc(-c3cncc(C(O)C(=O)N(C)C)c3)c(C#N)c12 (stereo not drawn) [2-{5-[4-Cyano-3-(2-methoxy-phenyl)-1H-pyrrolo[2,3-b]pyridin-5-yl]-pyridin-3-yl}-2-hydroxy-N,N-dimethyl-acetamide] the GI50 (ABL T315I BAF3 cells) was > 1000 nM, the GI50 (ABL P210WT BAF3 cells) was > 1000 nM and the “ABL_T315I_0P (IC50)” value [1] was “D (<0.01 μM)”.
In the case of COc1ccccc1-c1c[nH]c2ncc(-c3cncc(CC(=O)N(C)C)c3)c(Cl)c12 [2-{5-[4-Chloro-3-(2-methoxy-phenyl)-1H-pyrrolo[2,3-b]pyridin-5-yl]-pyridin-3-yl}-N,N-dimethyl-acetamide], the GI50 (ABL T315I BAF3 cells) is reported as 10 to 100 nM, the GI50 (ABL P210WT BAF3 cells) is reported as 10 to 100 nM and the “ABL_T315I_0P (IC50)” value [1] is reported as “D (<0.01 μM)”.
COc1ccccc1-c1c[nH]c2ncc(Br)c(N(C)CCO)c12 [2-{[5-Bromo-3-(2-methoxy-phenyl)-1H-pyrrolo[2,3-b]pyridin-4-yl]-methyl-amino}-ethanol] was tested, and the GI50 (ABL T315I BAF3 cells) was > 1000 nM, the GI50 (ABL P210WT BAF3 cells) was > 1000 nM and the “ABL_T315I_0P (IC50)” value [1] was “C (0.1-0.01 μM)”.
For CN(C)C(=O)Cc1cncc(-c2cnc3[nH]cc(-c4cccc(F)c4F)c3c2Cl)c1 [2-{5-[4-Chloro-3-(2,3-difluoro-phenyl)-1H-pyrrolo[2,3-b]pyridin-5-yl]-pyridin-3-yl}-N,N-dimethyl-acetamide], the GI50 (ABL T315I BAF3 cells) was 100 to 1000 nM, the GI50 (ABL P210WT BAF3 cells) was 100 to 1000 nM and the “ABL_T315I_0P (IC50)” value [1] was “D (<0.01 μM)”.
With COc1ccccc1-c1c[nH]c2ncc(-c3cncc(C(O)C(=O)N(C)C)c3)c(O)c12 (stereo not drawn) [2-Hydroxy-2-{5-[4-hydroxy-3-(2-methoxy-phenyl)-1H-pyrrolo[2,3-b]pyridin-5-yl]-pyridin-3-yl}-N,N-dimethyl-acetamide] the GI50 (ABL T315I BAF3 cells) was > 1000 nM, the GI50 (ABL P210WT BAF3 cells) was > 1000 nM and the “ABL_T315I_0P (IC50)” value [1] was “C (0.1-0.01 μM)”.
CCN(C)C(=O)c1cc(-c2cnc3[nH]cc(-c4cccc(F)c4)c3c2Cl)cnc1N [2-Amino-5-[4-chloro-3-(3-fluoro-phenyl)-1H-pyrrolo[2,3-b]pyridin-5-yl]-N-ethyl-N-methyl-nicotinamide] was tested, and the GI50 (ABL T315I BAF3 cells) was 10 to 100 nM, the GI50 (ABL P210WT BAF3 cells) was 10 to 100 nM and the “ABL_T315I_0P (IC50)” value [1] was “D (<0.01 μM)”.
With COc1cnccc1-c1c[nH]c2ncc(-c3cncc(C(O)C(=O)N(C)C)c3)c(Cl)c12 (stereo not drawn) [2-{5-[4-Chloro-3-(3-methoxy-pyridin-4-yl)-1H-pyrrolo[2,3-b]pyridin-5-yl]-pyridin-3-yl}-2-hydroxy-N,N-dimethyl-acetamide] the GI50 (ABL T315I BAF3 cells) was > 1000 nM, the GI50 (ABL P210WT BAF3 cells) was > 1000 nM and the “ABL_T315I_0P (IC50)” value [1] was “D (<0.01 μM)”.
In the case of CN(C)C(=O)c1cncc(-c2cnc3[nH]cc(-c4ccccc4F)c3c2Cl)n1 [6-[4-Chloro-3-(2-fluoro-phenyl)-1H-pyrrolo[2,3-b]pyridin-5-y] [6-[4-Chloro-3-(2-fluoro-phenyl)-1H-pyrrolo[2,3-b]pyridin-5-yl]-pyrazine-2-carboxylic acid dimethylamide], the GI50 (ABL T315I BAF3 cells) is reported as > 1000 nM, the GI50 (ABL P210WT BAF3 cells) is reported as > 1000 nM and the “ABL_T315I_0P (IC50)” value [1] is reported as “D (<0.01 μM)”.
